Data: patent publication US10681909B2, “Herbicidal triazoles” (FMC Corporation, priority 2014, dated 2020)

Legend:
[1] = tested on: barnyardgrass; test: Test B flooded paddy test; format: in vivo, Echinochloa crus-galli; conditions: 250 g ai/ha, applied to paddy water at 2-leaf stage, visual rating after 13 to 15 d, scale 0 (no effect) to 100 (complete control)
In short: (§1)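 Pots were flooded to 3 cm above the soil at treatment, and compounds were applied directly into the paddy water. That depth was held throughout. After 13 to 15 d in a greenhouse, plants were rated visually against untreated controls.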

[2] = tested on: sedge, umbrella; test: Test B flooded paddy test; format: in vivo, Cyperus difformis; conditions: 250 g ai/ha, applied to paddy water at 2-leaf stage, visual rating after 13 to 15 d, scale 0 (no effect) to 100 (complete control)
In short: as §1

[3] = tested on: ragweed; test: Test C postemergence; format: in vivo, Ambrosia elatior
Description: (§2) Seeds of plant species selected from blackgrass (Alopecurus myosuroides), ryegrass, Italian (Italian ryegrass, Lolium multiflorum), wheat (winter wheat, Triticum aestivum), galium (catchweed bedstraw, Galium aparine), corn (Zea mays), crabgrass, large (large crabgrass, Digitaria sanguinalis), foxtail, giant, (giant foxtail, Setaria faberii), johnsongrass (Sorghum halepense), lambsquarters (Chenopodium album), morningglory (Ipomoea coccinea), nutsedge, yellow (yellow nutsedge, Cyperus esculentus), pigweed (Amaranthus retroflexus), ragweed (common ragweed, Ambrosia elatior), soybean (Glycine max), barnyardgrass (Echinochloa crus-galli), oilseed rape (Brassica napus), waterhemp (common waterhemp, Amaranthus rudis), and velvetleaf (Abutilon theophrasti) were planted into a blend of loam soil and sand and treated preemergence with test chemicals formulated in a non-phytotoxic solvent mixture which included a surfactant. At the same time, plants selected from these crop and weed species and also chickweed (common chickweed, Stellaria media), oat, wild (wild oat, Avena fatua), and kochia (Kochia scoparia), were planted in pots containing Sunshine Redi-Earth® planting medium comprising spaghnum peat moss, vermiculite, starter nutrients and dolomitic limestone and treated with postemergence applications of test chemicals formulated in the same manner. Plants ranged in height from 2 to 18 cm (1- to 4-leaf stage) for postemergence treatments. […] A dash (-) response means no test result.

[4] = tested on: chickweed; test: Test C postemergence; format: in vivo, Stellaria media
Description: as §2

[5] = tested on: johnsongrass; test: Test C postemergence; format: in vivo, Sorghum halepense
Description: as §2

[6] = tested on: kochia; test: Test C postemergence; format: in vivo, Kochia scoparia
Description: as §2

[7] = tested on: oat, wild; test: Test C postemergence; format: in vivo, Avena fatua
Description: as §2

[8] = tested on: crabgrass, large; test: Test C preemergence; format: in vivo, Digitaria sanguinalis; conditions: for Plant response rating (scale of 0 to 100 where 0 is no effect and 100 is complete control): Crabgrass, Large, preemergence; for Crabgrass, Large plant response rating (0 to 100): Preemergence, visual rating after 13 to 15 d
Description: as §2

[9] = tested on: barnyardgrass; test: Test C postemergence; format: in vivo, Echinochloa crus-galli
Description: as §2

[10] = tested on: foxtail, giant; test: Test C postemergence; format: in vivo, Setaria faberii
Description: as §2

[11] = tested on: blackgrass; test: Test C postemergence; format: in vivo, Alopecurus myosuroides
Description: as §2

[12] = tested on: morningglory; test: Test C postemergence; format: in vivo, Ipomoea coccinea
Description: as §2

[13] = tested on: ducksalad; test: Test B flooded paddy test; format: in vivo, Heteranthera limosa; conditions: 250 g ai/ha, applied to paddy water at 2-leaf stage, visual rating after 13 to 15 d, scale 0 (no effect) to 100 (complete control)
In short: as §1

CCOc1nc(-c2ccccc2)nn1Cc1ccnc(C(F)(F)F)c1 [Compound 27]
Plant response rating, Barnyardgrass, Flood [1]: 50
Plant response rating, Sedge, Umbrella, Flood [2]: 95
Plant response rating (scale of 0 to 100 where 0 is no effect and 100 is complete control) ([3]; 31 g ai/ha): 55
Plant response rating (scale of 0 to 100 where 0 is no effect and 100 is complete control) ([3]; 62 g ai/ha): 60
Plant response rating (scale of 0 to 100 where 0 is no effect and 100 is complete control) ([3]; 125 g ai/ha): 25
Plant response rating (scale of 0 to 100 where 0 is no effect and 100 is complete control) ([3]; 250 g ai/ha): 70
Plant response rating (scale of 0 to 100 where 0 is no effect and 100 is complete control) ([4]; 31 g ai/ha): 95
Plant response rating (scale of 0 to 100 where 0 is no effect and 100 is complete control) ([4]; 62 g ai/ha): 90
Plant response rating (scale of 0 to 100 where 0 is no effect and 100 is complete control) ([4]; 125 g ai/ha): 90
Plant response rating (scale of 0 to 100 where 0 is no effect and 100 is complete control) ([4]; 250 g ai/ha): 90
Plant response rating (scale of 0 to 100 where 0 is no effect and 100 is complete control) ([5]; 31 g ai/ha): 5
Plant response rating (scale of 0 to 100 where 0 is no effect and 100 is complete control) ([5]; 62 g ai/ha): 45
Plant response rating (scale of 0 to 100 where 0 is no effect and 100 is complete control) ([5]; 125 g ai/ha): 100
Plant response rating (scale of 0 to 100 where 0 is no effect and 100 is complete control) ([6]; 31 g ai/ha): 95
Plant response rating (scale of 0 to 100 where 0 is no effect and 100 is complete control) ([6]; 62 g ai/ha): 95
Plant response rating (scale of 0 to 100 where 0 is no effect and 100 is complete control) ([6]; 125 g ai/ha): 95
Plant response rating (scale of 0 to 100 where 0 is no effect and 100 is complete control) ([6]; 250 g ai/ha): 95
Plant response rating (scale of 0 to 100 where 0 is no effect and 100 is complete control) ([7]; 31 g ai/ha): 10
Plant response rating (scale of 0 to 100 where 0 is no effect and 100 is complete control) ([7]; 62 g ai/ha): 10
Plant response rating (scale of 0 to 100 where 0 is no effect and 100 is complete control) ([7]; 125 g ai/ha): 25
Plant response rating (scale of 0 to 100 where 0 is no effect and 100 is complete control) ([7]; 250 g ai/ha): 40
Plant response rating (scale of 0 to 100 where 0 is no effect and 100 is complete control) ([8]; 125 g ai/ha): 100
Plant response rating (scale of 0 to 100 where 0 is no effect and 100 is complete control) ([8]; 250 g ai/ha): 100
Crabgrass, Large plant response rating (0 to 100) ([8]; 31 g ai/ha): 100
Crabgrass, Large plant response rating (0 to 100) ([8]; 62 g ai/ha): 100
Plant response rating (scale of 0 to 100 where 0 is no effect and 100 is complete control) ([9]; 31 g ai/ha): 10
Plant response rating (scale of 0 to 100 where 0 is no effect and 100 is complete control) ([9]; 62 g ai/ha): 15
Plant response rating (scale of 0 to 100 where 0 is no effect and 100 is complete control) ([9]; 125 g ai/ha): 25
Plant response rating (scale of 0 to 100 where 0 is no effect and 100 is complete control) ([9]; 250 g ai/ha): 55
Plant response rating (scale of 0 to 100 where 0 is no effect and 100 is complete control) ([10]; 31 g ai/ha): 5
Plant response rating (scale of 0 to 100 where 0 is no effect and 100 is complete control) ([10]; 62 g ai/ha): 10
Plant response rating (scale of 0 to 100 where 0 is no effect and 100 is complete control) ([10]; 125 g ai/ha): 10
Plant response rating (scale of 0 to 100 where 0 is no effect and 100 is complete control) ([10]; 250 g ai/ha): 15
Plant response rating (scale of 0 to 100 where 0 is no effect and 100 is complete control) ([11]; 31 g ai/ha): 10
Plant response rating (scale of 0 to 100 where 0 is no effect and 100 is complete control) ([11]; 62 g ai/ha): 15
Plant response rating (scale of 0 to 100 where 0 is no effect and 100 is complete control) ([11]; 125 g ai/ha): 35
Plant response rating (scale of 0 to 100 where 0 is no effect and 100 is complete control) ([11]; 250 g ai/ha): 50
Plant response rating (scale of 0 to 100 where 0 is no effect and 100 is complete control) ([12]; 31 g ai/ha): 85
Plant response rating (scale of 0 to 100 where 0 is no effect and 100 is complete control) ([12]; 62 g ai/ha): 80
Plant response rating (scale of 0 to 100 where 0 is no effect and 100 is complete control) ([12]; 125 g ai/ha): 90
Plant response rating (scale of 0 to 100 where 0 is no effect and 100 is complete control) ([12]; 250 g ai/ha): 85
Plant response rating, Ducksalad, Flood [13]: 90

FC(F)(F)COc1nc(-c2ccccc2)nn1Cc1ccnc(C(F)(F)F)c1 [Compound 24]
Plant response rating, Barnyardgrass, Flood [1]: 30
Plant response rating, Sedge, Umbrella, Flood [2]: 85
Plant response rating (scale of 0 to 100 where 0 is no effect and 100 is complete control) ([3]; 31 g ai/ha): 65
Plant response rating (scale of 0 to 100 where 0 is no effect and 100 is complete control) ([3]; 62 g ai/ha): 75
Plant response rating (scale of 0 to 100 where 0 is no effect and 100 is complete control) ([3]; 125 g ai/ha): 75
Plant response rating (scale of 0 to 100 where 0 is no effect and 100 is complete control) ([3]; 250 g ai/ha): 75
Plant response rating (scale of 0 to 100 where 0 is no effect and 100 is complete control) ([4]; 31 g ai/ha): 55
Plant response rating (scale of 0 to 100 where 0 is no effect and 100 is complete control) ([4]; 62 g ai/ha): 80
Plant response rating (scale of 0 to 100 where 0 is no effect and 100 is complete control) ([4]; 125 g ai/ha): 65
Plant response rating (scale of 0 to 100 where 0 is no effect and 100 is complete control) ([4]; 250 g ai/ha): 85
Plant response rating (scale of 0 to 100 where 0 is no effect and 100 is complete control) ([5]; 31 g ai/ha): 10
Plant response rating (scale of 0 to 100 where 0 is no effect and 100 is complete control) ([5]; 62 g ai/ha): 20
Plant response rating (scale of 0 to 100 where 0 is no effect and 100 is complete control) ([5]; 125 g ai/ha): 10
Plant response rating (scale of 0 to 100 where 0 is no effect and 100 is complete control) ([5]; 250 g ai/ha): 20
Plant response rating (scale of 0 to 100 where 0 is no effect and 100 is complete control) ([6]; 31 g ai/ha): 90
Plant response rating (scale of 0 to 100 where 0 is no effect and 100 is complete control) ([6]; 62 g ai/ha): 90
Plant response rating (scale of 0 to 100 where 0 is no effect and 100 is complete control) ([6]; 125 g ai/ha): 90
Plant response rating (scale of 0 to 100 where 0 is no effect and 100 is complete control) ([6]; 250 g ai/ha): 90
Plant response rating (scale of 0 to 100 where 0 is no effect and 100 is complete control) ([7]; 31 g ai/ha): 15
Plant response rating (scale of 0 to 100 where 0 is no effect and 100 is complete control) ([7]; 62 g ai/ha): 30
Plant response rating (scale of 0 to 100 where 0 is no effect and 100 is complete control) ([7]; 125 g ai/ha): 20
Plant response rating (scale of 0 to 100 where 0 is no effect and 100 is complete control) ([7]; 250 g ai/ha): 35
Plant response rating (scale of 0 to 100 where 0 is no effect and 100 is complete control) ([8]; 125 g ai/ha): 100
Plant response rating (scale of 0 to 100 where 0 is no effect and 100 is complete control) ([8]; 250 g ai/ha): 100
Crabgrass, Large plant response rating (0 to 100) ([8]; 31 g ai/ha): 98
Crabgrass, Large plant response rating (0 to 100) ([8]; 62 g ai/ha): 98
Plant response rating (scale of 0 to 100 where 0 is no effect and 100 is complete control) ([9]; 31 g ai/ha): 25
Plant response rating (scale of 0 to 100 where 0 is no effect and 100 is complete control) ([9]; 62 g ai/ha): 30
Plant response rating (scale of 0 to 100 where 0 is no effect and 100 is complete control) ([9]; 125 g ai/ha): 35
Plant response rating (scale of 0 to 100 where 0 is no effect and 100 is complete control) ([9]; 250 g ai/ha): 35
Plant response rating (scale of 0 to 100 where 0 is no effect and 100 is complete control) ([10]; 31 g ai/ha): 15
Plant response rating (scale of 0 to 100 where 0 is no effect and 100 is complete control) ([10]; 62 g ai/ha): 20
Plant response rating (scale of 0 to 100 where 0 is no effect and 100 is complete control) ([10]; 125 g ai/ha): 20
Plant response rating (scale of 0 to 100 where 0 is no effect and 100 is complete control) ([10]; 250 g ai/ha): 20
Plant response rating (scale of 0 to 100 where 0 is no effect and 100 is complete control) ([11]; 31 g ai/ha): 5
Plant response rating (scale of 0 to 100 where 0 is no effect and 100 is complete control) ([11]; 62 g ai/ha): 5
Plant response rating (scale of 0 to 100 where 0 is no effect and 100 is complete control) ([11]; 125 g ai/ha): 35
Plant response rating (scale of 0 to 100 where 0 is no effect and 100 is complete control) ([11]; 250 g ai/ha): 35
Plant response rating (scale of 0 to 100 where 0 is no effect and 100 is complete control) ([12]; 31 g ai/ha): 98
Plant response rating (scale of 0 to 100 where 0 is no effect and 100 is complete control) ([12]; 62 g ai/ha): 98
Plant response rating (scale of 0 to 100 where 0 is no effect and 100 is complete control) ([12]; 125 g ai/ha): 90
Plant response rating (scale of 0 to 100 where 0 is no effect and 100 is complete control) ([12]; 250 g ai/ha): 95
Plant response rating, Ducksalad, Flood [13]: 30
